Data: publication PMC9934487, “Aging decreases docosahexaenoic acid transport across the blood-brain barrier in C57BL/6J mice” (PLOS ONE, 2023)
“Also recorded” adds a separate entry of the source. Values belong to the compound of their own block, whether it stands above or below them.

Columns and labels:
[1] = In situ transcardiac brain perfusion: brain/perfusate ratio at 1 min in 2-, 8-, 12- and 24-month-old mice; type: in vivo, C57BL/6J mice; conditions: for decrease of [14C]DHA brain/perfusate ratio: 1 min perfusion at 2 mL/min
Experimental: (§1) Brain uptake of DHA was assessed in mice using an in situ transcardiac brain perfusion technique. […] The [1-^14C]DHA as NE-DHA (American Radiolabeled Chemicals, St. Louis, MO, USA; ARC0380), [^3H]mannitol (PerkinElmer, Waltham, MA, USA, NET101) and [^14C]sucrose (PerkinElmer, Waltham, MA, USA; NEC100X) were diluted to concentrations of 0.1 μCi/mL (DHA and sucrose) and 0.2 μCi/mL (mannitol) in a physiological buffer containing 141 mM NaCl (Sigma, St. Louis, MO, USA; 28–2270–5), 4 mM KCl (Wako, Osaka, Japan; 163–03545), 2.8 mM CaCl2 (Sigma; 05–0580), 1 mM MgSO4·7H2O (Kishida Chemical Co., Ltd., Osaka, Japan; 000–46905), 1 mM NaH2PO4·2H2O (Wako; 192–02815), 10 mM d-glucose (Wako; 041–00595), and 10 mM 4-(2-hydroxyethyl)-1-piperazineethanesulfonic acid (HEPES; Sigma; H4034); pH 7.4. In a competition assay, unlabeled NE-DHA (Sigma; D2534-100MG) was added to the perfusate (final concentration of unlabeled DHA: 100 μM) before infusion. Ethanol (Nacalai Tesque, Kyoto, Japan; 14713–95) was added to an equal volume of unlabeled DHA to the perfusate (final ethanol concentration: 0.001%) as the vehicle control.
(§2) Mice were anesthetized using an intraperitoneal injection of 25% urethane (Sigma; 94300). The heart was exposed, the left jugular vein was severed, and the descending aorta was ligated. Perfusate containing [^14C]DHA, [^3H]mannitol, or [^14C]sucrose was then infused into the left ventricle of the heart at a rate of 2 mL/min for 0.5 to 1.5 min using a 27 gauge butterfly needle. In the uptake experiment for aged mice, the perfusate was infused for 1 min. After perfusion, the brain was removed, dissected into six regions (the olfactory bulb, forebrain, cortex, hippocampus, thalamus and hypothalamus, and cerebellum), and weighed. Each brain region was mixed with 1 mL of tissue solubilizer (Solvable™; PerkinElmer; 6NE9100) and incubated at 60°C for 24 h. Samples were prepared for scintillation counting by the addition of 0.2 mL H2O2 (Sigma; 13-1910-5) and 10 mL of liquid scintillation cocktail (Pico-Fluor Plus; PerkinElmer; 6013699). The radioactivity in the samples was then measured using a liquid scintillation counter (Packard 2250CA; PerkinElmer). Brain/perfusate ratios were calculated by dividing the radioactivity in 1 g of brain tissue by the radioactivity in an mL of perfusate. Whole brain values were calculated by dividing the total radioactivity in each brain region by the total weight of each brain region. The unidirectional influx rate (Ki) was determined by the linear portion of the slope in the plot of brain/perfusate ratio against perfusion time.

[2] = test system: rat brain endothelial cells (RBECs); assay: Cellular uptake of [14C]DHA by primary rat brain endothelial cells; type: cell-based
Experimental: The method of primary culture of rat brain endothelial cells (RBECs) is previously described. The meninges and white matter were carefully removed from the forebrains, and the gray matter was minced using a scalpel and enzymatic digestion by DMEM (Wako; 048–29763), including collagenase type 2 (1 mg/mL, Worthington, Lakewood, NJ, USA; CLS2) for 75 min at 37°C with agitation in the water bath. After inactivation by adding cold DMEM, the suspension was centrifuged (1,000 × g, 8 min). The pellet was separated by centrifugation in 20% BSA, (Wako, 011–27055)—DMEM (1,000 × g, 20 min). The pellet containing microvessels were further digested with DMEM including collagenase/dispase (1 mg/mL, Roche, Mannheim, Germany; 11097113001) for 20 min at 37°C with agitation in the water bath. After inactivation, microvessel clusters were separated on a 33% continuous Percoll (GE Healthcare, Buckinghamshire, UK; 17-5445-01) gradient, collected and plated on collagen type IV (0.1 mg/mL, Sigma; C5533) and fibronectin (0.075 mg/mL, Sigma; F1141-5MG) coated dishes. RBEC cultures were maintained in RBEC medium [DMEM/F12 (Wako; 042–30555) supplemented with 10% FBS (Biosera, Kansas, MO, USA; FB-1365/500), basic fibroblast growth factor (1.5 ng/mL, R&D, Minneapolis, MN, USA; 2099-FB-025), heparin (100 μg/mL, Sigma; H3149), insulin (5 μg/mL), transferrin (5 μg/mL), sodium selenite (5 ng/mL; insulin-transferrin-sodium selenite media supplement, Sigma; I1884), penicillin (100 units/mL), streptomycin (100 μg/mL; penicillin-streptomycin mixed solution, Nacalai Tesque; 09367–34) and gentamicin (50 μg/mL, Biowest, Riverside, MO, USA; L0012)] containing puromycin (4 μg/mL, Nacalai Tesque; 14861–84) at 37°C in a humidified atmosphere of 5% CO2/95% air, for three days and typically reached 70–80% confluency. […]
To measure the cellular uptake of DHA, RBECs cultured on a 24-well plate were incubated with 0.2 mL of physiological buffer containing 0.1 μCi/mL [^14C]DHA (incubation buffer) at 37°C for 30 s to 15 min. […] The total protein concentration in the cell lysates was determined using a Pierce™ BCA Protein Assay Kit. Samples were added to 10 mL of a liquid scintillation cocktail, then [^14C]DHA radioactivity in the cell lysate was measured using a liquid scintillation counter. The cellular uptake of [^14C]DHA by RBECs was expressed as cell/medium ratios calculated by dividing the radioactivity in one milligram of protein by the radioactivity in one microliter of the incubation buffer. The rate of cellular uptake was determined by the linear portion of the slope of the cell/medium ratios against the incubation time (0.5, 2, 5, and 10 min) graph.

[3] = cited from earlier work
[4] = In situ transcardiac brain perfusion competition assay with excess unlabeled DHA: brain uptake rate (Ki) in 2-month-old mice
Experimental: as §1, §2
Results are expressed as the mean ± standard error of the mean (SEM). Statistical analyses were performed using GraphPad Prism 8.0 (GraphPad, San Diego, CA, USA). […]

[5] = parameters: method as in PMID 33054801; conditions: ref PMID 33054801; cited from earlier work
[6] = test system: bovine brain endothelial cells; parameters: method as in PMID: 9886086; conditions: 2 h incubation; ref PMID: 9886086; cited from earlier work
[7] = capillary depletion after a 40 s in situ brain perfusion, ref PMID: 19442696
[8] = co-infusion of an excess amount of DHA

difference of [14C]DHA brain/perfusate ratio ([1]; forebrain, 2 vs. 12 months old): 0.04489 mL/g | difference of [14C]DHA brain/perfusate ratio ([1]; forebrain, 2 vs. 24 months old): 0.05294 mL/g | difference of [14C]DHA brain/perfusate ratio ([1]; hippocampus, 2 vs. 12 months old): 0.03402 mL/g | difference of [14C]DHA brain/perfusate ratio ([1]; hippocampus, 2 vs. 24 months old): 0.06034 mL/g | difference of [14C]DHA brain/perfusate ratio ([1]; olfactory bulb, 2 vs. 24 months old): 0.04626 mL/g | difference of [14C]DHA brain/perfusate ratio ([1]; thalamus and hypothalamus, 2 vs. 12 months old): 0.04306 mL/g | difference of [14C]DHA brain/perfusate ratio ([1]; thalamus and hypothalamus, 2 vs. 24 months old): 0.05106 mL/g | decrease of [14C]DHA brain/perfusate ratio ([1]; whole brain, 12-month-old vs 2-month-old mice): 0.03275 mL/g | decrease of [14C]DHA brain/perfusate ratio ([1]; whole brain, 24-month-old vs 2-month-old mice): 0.03827 mL/g | rate of cellular uptake of [14C]DHA by RBECs ([2]; 4°C): 19.98 μLmg protein^-1 min^-1 | rate of cellular uptake of [14C]DHA by RBECs ([2]; 37°C): 50.13 μLmg protein^-1 min^-1 | time at which cellular uptake of [14C]DHA by RBECs peaked ([2]; intact RBECs, 37°C): 10 min | perfusion time at which brain uptake of [14C]DHA plateaued ([4]; 2-month-old mice, perfusion at 2 mL/min): 1.5 min
Structure (SMILES): CC/C=C\C/C=C\C/C=C\C/C=C\C/C=C\C/C=C\CCC(=O)O [[^14C]DHA, Docosahexaenoic acid]
[14C]DHA detected in brain parenchymal fraction [3, 7]: more than 90% | [14C]DHA remaining in the endothelial cells of the brain vasculature [3, 7]: less than 10% | [14C]DHA remaining in endothelial cells of the brain vasculature ([3]; capillary depletion after brain perfusion, ref 12 (printed [40])): less than 10%

Structure (SMILES): OC[C@@H](O)[C@@H](O)[C@H](O)[C@H](O)CO [mannitol]
brain concentrations and Kin compared with sucrose [5]: higher

effect of age on brain uptake of [3H]mannitol ([1]; each brain region, 2-, 8-, 12-, 24-month-old mice, 1 min): no significant effects with age | Kin for [3H]mannitol [4, 8]: not changed | brain/perfusate ratio of [3H]mannitol [4, 8]: increased
Structure (SMILES): OC[C@@H](O)[C@@H](O)[C@H](O)[C@H](O)CO [[^3H]mannitol, mannitol]
change in brain uptake (brain/perfusate ratio) of [3H]mannitol with age ([1]; whole brain, 2-, 8-, 12-, 24-month-old mice, 1 min): No significant changes; also recorded: no significant differences

Structure (SMILES): CC/C=C\C/C=C\C/C=C\C/C=C\C/C=C\C/C=C\CCC(=O)O [unlabeled DHA, Docosahexaenoic acid]
fate of non-esterified DHA taken up by brain endothelial cells [6]: mainly incorporated into phosphatidylcholine | effect on cellular uptake rate of [14C]DHA in rat brain endothelial cells ([2]; in the presence of unlabeled DHA, vs vehicle (Fig. F of response letter)): declined; also recorded: decreased | inhibition at 100 µM ([4]; Mus musculus, read-out: extent of inhibition of the brain uptake rate of [14C]DHA): ~50%
